13 molecules from patent publication US20070191627A1, “Stilbene derivatives and their use in medicaments” (priority 2003, published 2007) can be followed below.

In one test the target is T1, COX 1 (Homo sapiens, UniProt P23219).
T1 construct: purchased IBL Products Company, Hamburg, Germany
As to the kind of experiment: COX (human) inhibitor screening assay, COX 1. Type of test: biochemical.

The next test addresses T2, COX 2 (Homo sapiens, UniProt P35354).
T2 construct: purchased IBL Products Company, Hamburg, Germany
T2 sequence (P35354 18-604): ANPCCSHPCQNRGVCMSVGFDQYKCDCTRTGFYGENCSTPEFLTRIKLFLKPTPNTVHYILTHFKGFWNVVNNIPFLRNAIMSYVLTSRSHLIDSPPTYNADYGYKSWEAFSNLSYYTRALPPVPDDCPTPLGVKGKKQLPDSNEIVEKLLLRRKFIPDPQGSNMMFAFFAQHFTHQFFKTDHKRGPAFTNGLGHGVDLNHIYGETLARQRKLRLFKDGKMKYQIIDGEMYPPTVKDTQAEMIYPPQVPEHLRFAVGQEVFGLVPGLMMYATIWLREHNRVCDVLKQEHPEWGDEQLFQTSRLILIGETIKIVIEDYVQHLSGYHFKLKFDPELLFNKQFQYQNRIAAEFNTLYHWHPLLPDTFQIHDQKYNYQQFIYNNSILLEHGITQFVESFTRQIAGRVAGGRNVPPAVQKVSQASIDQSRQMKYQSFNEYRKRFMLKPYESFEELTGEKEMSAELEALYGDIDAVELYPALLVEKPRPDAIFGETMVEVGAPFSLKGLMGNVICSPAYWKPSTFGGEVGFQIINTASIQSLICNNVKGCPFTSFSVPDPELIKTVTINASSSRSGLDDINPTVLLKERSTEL
The experiment in a line: COX (human) inhibitor screening assay, COX 2. The settings on record: for COX2/COX1 Ratio: ratio of COX 2 IC50 to COX 1 IC50. Type of test: biochemical.

For test [1], the system named is HL-60 human promyelocyte leukemia cells. As to the kind of experiment: Growth inhibition assay in HL-60 cells (72 h, cell count). The settings on record: for IC50: Homo sapiens. The format is cell-based. Here is the method: The human promyelocyte leukemia cell line HL-60 was purchased from the ATCC (American Type Culture Collection, Rockville, Md., USA). The cells were cultured in RPMI 1640 medium with 10% heat-inactivated fetal calf serum (FCS) (GIBCO, Grand Island Biological Co., Grand Island, N.Y., USA) and with 1% penicillin/streptomycin in a humidified atmosphere with 5% CO2.
The cell numbers were determined by means of a microcell counter CC-108 (Sysmex, Kobe, Japan). For the tests, cells in the logarithmic growth phase were used.
Logarithmically-growing HL-60 cells were prepared in a density of 0.1×10^6 cells/ml in tissue culture flasks and incubated with various concentrations of the stilbene derivatives to be examined. After 72 hours, the cells were counted by means of the microcell counter. The viability of the cells was determined by means of trypan blue staining. Numbers of viable cells were calculated as results.
After 72 hours, the cells were counted by means of the microcell counter. The viability of the cells was determined by means of trypan blue staining. Numbers of viable cells were calculated as results.

For a further test, the system named is PC-3. As to the kind of experiment: Clonogenic test series (7 d) in PC-3 prostate cancer cells. Type of test: cell-based. The settings on record: Homo sapiens, PC-3, 168 h.
In a further test the test system is LNCaP. As to the kind of experiment: Clonogenic test series (7 d) in LNCaP prostate cancer cells. The format is cell-based. The settings on record: Homo sapiens, 168 h, LNCaP cells respond to 5-alpha-dihydrotestosterone.
The next test deals with DU-145. The experiment in a line: Clonogenic test series (7 d) in DU-145 prostate cancer cells. The format is cell-based. Particulars: Homo sapiens, DU-145, 168 h.
For test [2], the system named is HL-60 cells. The experiment in a line: Analysis of intracellular dNTP pools by HPLC in HL-60 cells. The format is cell-based, human. Here is the method:
(§1) The analysis of the intracellular dNTP concentrations was carried out according to the method of Garrett and Santi (Garrett, C.; Santi, D. V. A Rapid and Sensitive High-Pressure Liquid Chromatography Assay for Deoxyribonucleoside Triphosphates in Cell Extracts. Anal Biochem. 1979 Nov. 1; 99(2): 268-73.)
(§2) The action of hexahydroxystilbene (“M8”) on the intracellular dNTP concentrations in HL-60 cells was examined. The study was performed as described above. The cells were incubated with 6.25, 12.5 and 25 μM of hexahydroxystilbene, and then the dNTP pools were determined. […] The dATP concentrations dropped during treatment with 12.5 and 25 μM of hexahydroxystilbene to 27 and 41% of the starting values. The depletion of the dATP pools was especially impressive in the case of HT-29 human colon tumor cells; the dATP values dropped there as early as after treatment with 4 μM of the substance in an average of 1.5% of the starting values. […] The action of the substance can also be clarified by this impressive imbalance of the dNTP pools that are precursors of the DNA synthesis. The results of the experiment with HL-60 cells are plotted in FIG. 3.

Test [3] concerns HT-29 human colon tumor cells. The experiment in a line: Analysis of intracellular dATP pools in HT-29 cells. The settings on record: 4 μM, HT-29, average. Type of test: cell-based. Here is the method: as §1, §2
Test [4] deals with HL-60 cells. As to the kind of experiment: Apoptosis induction, Hoechst 33258/propidium iodide double staining in HL-60 cells. Type of test: cell-based, human. The settings on record: 24 hours. Here is the method:
Then, the cells were treated for one hour with Hoechst 33258 (HO, Sigma, St. Louis, Mo., USA) and propidium iodide (PI, Sigma, St. Louis, Mo., USA) (5 μg/ml and 2 μg/ml). Then, the cells were photographed by means of a fluorescence microscope, and the cells were divided morphologically into early apoptotic, late apoptotic and necrotic cells. […] The results are plotted in FIG. 4.

The subject of test [5] is HL-60 cells. As to the kind of experiment: Cell cycle distribution by FACS in HL-60 cells. The format is cell-based, human. The settings on record: 24 hours. Here is the method:
HL-60 cells were incubated in the presence of hexahydroxystilbene. After 24 hours, the cells were washed, centrifuged and fixed in alcohol. Then, […] and examined by means of FACS analysis. Then, the cell cycle phase distribution was calculated.

The mark [6] stands for this setting: HL-60, 1st determination series, 72 hours, read-out: IC50 (μM), inhibition of growth of HL-60 human promyelocyte leukemia cells.
Setting [7] is: HL-60, Table 3, 72 h, read-out: Growth inhibition (72 h) HL-60.
The mark [8] stands for this setting: HL-60, read-out: IC50 (50% inhibition of cell growth), HL-60, 2nd determination series, 72 hours of incubation.

Each structure is given as a SMILES string. Read-outs that look alike come from different tables or passages of the source.

T1 sequence (P23219 24-599): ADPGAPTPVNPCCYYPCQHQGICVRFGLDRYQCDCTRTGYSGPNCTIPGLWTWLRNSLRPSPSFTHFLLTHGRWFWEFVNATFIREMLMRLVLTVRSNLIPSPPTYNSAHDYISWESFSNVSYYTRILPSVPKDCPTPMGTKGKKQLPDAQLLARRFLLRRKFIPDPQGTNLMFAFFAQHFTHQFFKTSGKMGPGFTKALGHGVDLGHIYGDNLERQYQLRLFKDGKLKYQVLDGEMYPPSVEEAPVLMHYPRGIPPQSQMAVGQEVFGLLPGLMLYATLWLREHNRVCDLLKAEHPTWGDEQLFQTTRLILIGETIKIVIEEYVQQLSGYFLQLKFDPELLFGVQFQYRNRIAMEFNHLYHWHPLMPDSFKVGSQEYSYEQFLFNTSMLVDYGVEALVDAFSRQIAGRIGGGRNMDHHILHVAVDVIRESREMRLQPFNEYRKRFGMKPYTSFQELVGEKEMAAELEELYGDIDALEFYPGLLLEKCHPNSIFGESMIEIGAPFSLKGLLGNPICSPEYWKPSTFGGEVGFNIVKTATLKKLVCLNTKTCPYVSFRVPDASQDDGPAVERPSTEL

For the molecule `COc1cc(C=Cc2cc(OC)c(OC)c(OC)c2)cc(OC)c1` [M2, 3,3′,4,5,5′-Pentamethoxystilbene], the IC50 at COX 1 was 10 µM; against COX 2 it was 0.6 µM; in test [1] (setting [6]), 25 µM; in test [1] (setting [7]), 25 µM; with PC-3, 21 µM; in the test on LNCaP it was above 100 µM. Further, the IC50 in the test with DU-145 turned out to be 68 µM. The “COX2/COX1 Ratio” value at COX 2 amounted to 0.06.
As for `Oc1cc(C=Cc2cc(O)c(O)c(O)c2)cc(O)c1O` [M8, 3,3′,4,4′,5,5′-Hexahydroxystilbene], the IC50 against COX 1 is 0.5 µM; at COX 2, 0.001 µM; in [1] (setting [8]) it was 6.25 µM; in test [1] (setting [6]) it was 4 µM; in [1] (setting [7]), 4 µM; in test [1] (HL-60, adding 50 or 100 μM of vitamin C, read-out: IC50 of growth inhibition, HL-60, with added vitamin C) it was 2 µM. Moreover, the IC50 came to 2.5 µM with PC-3, 3.4 µM in the test with LNCaP and 25 µM in the test on DU-145. The “dCTP pools, % of the control values” is 110% with HL-60 cells [2] (6.25 μM), 137% in the test on HL-60 cells [2] (12.5 μM) and 199% with HL-60 cells [2] (25 μM). Also, the “dTTP pools, % of the starting values” in the test with HL-60 cells [2] (6.25 μM) came to 84%; with HL-60 cells [2] (12.5 μM), 72%; in the test with HL-60 cells [2] (25 μM), 27%. Moreover, the “dATP concentrations, % of the starting values” came out at 27% in the test on HL-60 cells [2] (12.5 μM) and 41% in the test with HL-60 cells [2] (25 μM). The “dATP values, % of the starting values” in test [3] is given as 1.5%. In the test with HL-60 cells [4] (6.25 μM), the “Cells with induction of apoptosis” value worked out at 68.5%. Besides, the “Apoptosis induction compared with resveratrol, in words” value in the test with HL-60 cells [4] was “induced apoptosis in these cells in the case of significantly lower concentrations than resveratrol”. Further, the “Cell cycle distribution, G2-M phase, in words” value with HL-60 cells [5] is on record as “a depletion of cells resulted in the G2-M phase”. Besides, the “Cell cycle distribution, S phase, in words” value with HL-60 cells [5] is listed as “stopped the cells in S phase”.
Regarding `Oc1ccc(C=Cc2cc(O)c(O)c(O)c2)cc1` [M9, 3,4,4′,5-Tetrahydroxystilbene], the IC50 came to 5 µM at COX 1; 0.01 µM on COX 2; 9 µM in test [1] (setting [6]); 9 µM in test [1] (setting [7]); 8 µM in the test on PC-3; 9.5 µM in the test with LNCaP. For the same molecule, in the test on DU-145, the IC50 stood at 30 µM. Moreover, at COX 2, the “COX2/COX1 Ratio” value was 0.002.
For `Oc1cc(O)cc(C=Cc2cc(O)cc(O)c2)c1` [M6, 3,3′,5,5′-Tetrahydroxystilbene], the IC50 was 0.01 µM against COX 1; below 0.001 µM against COX 2; 12.5 µM in test [1] (setting [6]); 12.5 µM in test [1] (setting [7]); 16 µM in the test with PC-3; 84 µM with LNCaP. The same molecule had an IC50 in the test with DU-145 of 17 µM. Besides, the “COX2/COX1 Ratio” value at COX 2 is listed as below 0.1.
On to `Oc1cc(O)cc(C=Cc2ccc(O)c(O)c2)c1` [M10, 3,3′,4′,5-Tetrahydroxystilbene], for which the IC50 on COX 1 was 5 µM; at COX 2 it was 0.005 µM; in test [1] (setting [6]), 9 µM; in test [1] (setting [7]), 9 µM; in the test on PC-3 it was 18 µM; with LNCaP, 33 µM. Moreover, the IC50 in the test with DU-145 amounted to 58 µM.
For `Oc1cc(O)cc(C=Cc2cc(O)c(O)c(O)c2)c1` [M7, 3,3′,4,5,5′-Pentahydroxystilbene], the IC50 was determined as 0.01 µM at COX 1; 0.005 µM against COX 2; 10 µM in [1] (setting [6]); 10 µM in test [1] (setting [7]); 5 µM in the test with PC-3; 7.5 µM in the test with LNCaP. For the same molecule, the IC50 in the test on DU-145 was 23 µM. Also, the “COX2/COX1 Ratio” value on COX 2 stood at 0.5.
In the case of `COc1cc(C=Cc2ccc(OC)c(OC)c2)cc(OC)c1` [M5A, 3,3′,4′,5-Tetramethoxystilbene], the IC50 in test [1] (setting [7]) was 25 µM; in the test with PC-3, 35 µM; in the test on LNCaP it was 6.25 µM; with DU-145, 30 µM.
On to `COc1cccc(C=Cc2cc(OC)cc(OC)c2)c1` [M5, 3,3′,5-Trimethoxystilbene], for which the IC50 was determined as 5 µM in test [1] (setting [7]), 3 µM with PC-3, 6.25 µM with LNCaP and 6 µM in the test with DU-145.
On to `O=C1O[C@H]([C@@H](O)CO)C(O)=C1O` [Vitamin C, reference compound], for which, in [1] (50 or 100 μM, alone), the “Action on cell growth of HL-60, in words” value is reported as “no action on the cell growth”.
In the case of `COc1cc(C=Cc2cc(OC)c(OC)c(OC)c2)cc(OC)c1OC` [M3, 3,3′,4,4′,5,5′-Hexamethoxystilbene], the IC50 against COX 1 was 10 µM; against COX 2, 0.5 µM; in test [1] (setting [6]) it was above 100 µM; in test [1] (setting [7]), above 100 µM; in the test on PC-3 it was 5.5 µM; in the test on LNCaP it was 37 µM. This molecule registered an IC50 with DU-145 of 12.5 µM. The “COX2/COX1 Ratio” value at COX 2 is reported as 0.05.
Regarding `COc1cc(C=Cc2cc(OC)cc(OC)c2)cc(OC)c1` [M1, 3,3′,5,5′-Tetramethoxystilbene], the IC50 in test [1] (setting [7]) was above 100 µM; in the test on PC-3, 35 µM; with LNCaP it was 21 µM; in the test with DU-145, 25 µM.
On the same counts, the results for `COc1ccc(C=Cc2cc(OC)c(OC)c(OC)c2)cc1` [M4, 3,4,4′,5-Tetramethoxystilbene] are 20 µM, 3 µM, 0.4 µM and 0.4 µM.
For `Oc1ccc(C=Cc2cc(O)cc(O)c2)cc1` [Resveratrol, 3,4′,5-Trihydroxystilbene, reference compound], the IC50 in [1] (setting [8]) stood at 12 µM; in test [1] (setting [6]), 12 µM; in [1] (setting [7]), 12 µM; in the test with PC-3, 16 µM; with LNCaP, 5 µM; in the test with DU-145, 10 µM.
